This note sets out measurements from US4169096A, “Antibiotic compounds” (priority 1977, dated 1979).

Converted amounts (≈) assume the structure as drawn. Like-named read-outs stand apart in the source and are kept apart here.

The test system of data set [1] is Bacteroides fragilis A20935. The experiment in a line: microbe, parasite or virus in culture.
Data set [2] concerns Bacteroides fragilis A20932. As to the kind of experiment: microbe, parasite or virus in culture.
In data set [3] the test system is Acidoaminococcus fermentans ATCC 25085. The experiment in a line: microbe, parasite or virus in culture.
A further data set relates to C. perfringens A9635. As to the kind of experiment: microbe, parasite or virus in culture. The format is cell-based. Particulars: Clostridium perfringens.
Data set [4] deals with Streptococcus viridans A21354. The experiment in a line: MIC, serial two-fold agar dilution, aerobic bacteria. Type of data set: cell-based. Particulars: GC medium (Eiken). A general note: In agar dilution, organisms are placed on agar that contains the substance at set levels.
Data set [5] deals with C. perfringens or S. pyrogenes. Type of data set: in vivo, mice. Particulars: oral.
Data set [6] has as its system Staphylococcus aureus 209P. The experiment in a line: MIC, serial two-fold agar dilution, aerobic bacteria. Type of data set: cell-based. As to conditions: Nutrient agar (Eiken).
Data set [7] deals with Staphylococcus aureus #52-34. The data set is described as above. The format is cell-based.
Data set [8] relates to Fusobacterium varium ATCC 8501. The experiment in a line: microbe, parasite or virus in culture. Particulars: ATCC8501.

The LD50 is the dose at which mortality reaches 50%. The low end stands for greater toxicity, the high end for lower toxicity. As to `COC(=O)C1C(C)OC2(C)CC(=O)C3OC12OC(C(C)/C=C(C)/C=C/C(=O)C1=C(O)CN(C)C1=O)C3C` (stereo not shown) [Bu-2313A], the MIC in [1] was found to be 0.2 µg/mL (≈ 0.386 µM); in data set [2], 0.2 µg/mL (≈ 0.386 µM); in [3] it was 0.2 µg/mL (≈ 0.386 µM); in the data set with C. perfringens A9635 (A9635, read-out: MIC in GAM broth, inoculum size […] 10^5 cell/ml), 0.1 µg/mL (≈ 0.193 µM); in the data set on C. perfringens A9635 (A9635, read-out: MIC in GAM broth, inoculum size […] 10^6 cell/ml) it was 100 µg/mL (≈ 193 µM); in data set [4] it was 0.8 µg/mL (≈ 1.55 µM). The values for the MIC in data set [6], in data set [7] and in data set [8] were 25 µg/mL (≈ 48.3 µM), 12.5 µg/mL (≈ 24.2 µM) and 0.1 µg/mL (≈ 0.193 µM), respectively. Besides, the LD50 is 14 mg/kg in “in vivo” (ip, LD50, ip); 90 mg/kg in the data set “in vivo” (po, LD50, po); 90 mg/kg in the data set “in vivo” (sc, LD50, sc). The “activity by the oral route” value in [5] is “inactive by the oral route”.
